Test results taken from ChEMBL document CHEMBL1201862, “PubChem BioAssay data set” (2004).
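Five concentrations, 48 hours, 96-well plates. GI50 is the concentration that inhibits growth by half.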 Calls of active or inactive are those of the source. No stated cut-off is given here; in the data, active = GI50 up to about 1.1 µM and inactive = higher.

What was measured:
Test in all cases: DTP human tumour cell line panel, 48 h
[1] = tested on: OVCAR-5
[2] = tested on: SW-620
[3] = tested on: Malme-3M
[4] = tested on: MDA-N
[5] = tested on: MDA-MB-231
[6] = tested on: DU-145
[7] = tested on: SR
[8] = tested on: HCT-15
[9] = tested on: RXF 393
[10] = tested on: RPMI-8226
[11] = tested on: SN12C
[12] = tested on: CAKI-1
[13] = tested on: U-251
[14] = tested on: M14
[15] = tested on: SF-268
[16] = tested on: NCI-H460
[17] = tested on: MDA-MB-435
[18] = tested on: K562
[19] = tested on: Hs-578T
[20] = tested on: SK-MEL-28

| Compound | GI50 [1] | GI50 [2] | GI50 [3] | GI50 [4] | GI50 [5] | GI50 [6] | GI50 [7] | GI50 [8] [µM] | GI50 [9] | GI50 [10] | GI50 [11] | GI50 [12] | GI50 [13] | GI50 [14] | GI50 [15] | GI50 [16] | GI50 [17] | GI50 [18] | GI50 [19] | GI50 [20] |
| --- | --- | --- | --- | --- | --- | --- | --- | --- | --- | --- | --- | --- | --- | --- | --- | --- | --- | --- | --- | --- |
| Cc1cc(N(C)C)ccc1/N=N/c1ccc2ncccc2c1 | > 100 µM (inactive) | > 100 µM (inactive) | 62.4 µM (inactive) | > 100 µM (inactive) | 84.1 µM (inactive) | > 100 µM (inactive) | 44.4 µM (inactive) | 40.6 | > 100 µM (inactive) | 20.2 µM (inactive) | > 100 µM (inactive) | > 100 µM (inactive) | > 100 µM (inactive) | > 100 µM (inactive) | > 100 µM (inactive) | 27.4 µM (inactive) | > 100 µM (inactive) | 29.8 µM (inactive) | 30.6 µM (inactive) | – |
| O=C(c1cccs1)N1CCN(C(=O)c2cccs2)C1=S | 16 µM (inactive) | 5.01 µM (inactive) | 9.38 µM (inactive) | 3.69 µM (inactive) | 6.38 µM (inactive) | 2.51 µM (inactive) | 3.43 µM (inactive) | 3.99 | 2.6 µM (inactive) | 1.63 µM (inactive) | 2.95 µM (inactive) | 3.68 µM (inactive) | 5.92 µM (inactive) | 3.83 µM (inactive) | 5.28 µM (inactive) | 6.75 µM (inactive) | 2.88 µM (inactive) | 3.05 µM (inactive) | 10.7 µM (inactive) | 5.13 µM (inactive) |
| N=C(N)N/N=C/c1nc2n(c1[N+](=O)[O-])CCS2 | 43.8 µM (inactive) | 28.4 µM (inactive) | 15.6 µM (inactive) | 32.1 µM (inactive) | 29 µM (inactive) | 27.3 µM (inactive) | 14.5 µM (inactive) | 65.3 | 20.8 µM (inactive) | 52 µM (inactive) | 22 µM (inactive) | > 100 µM (inactive) | 15.7 µM (inactive) | 25.2 µM (inactive) | 10.6 µM (inactive) | 18.1 µM (inactive) | 27.9 µM (inactive) | – | 30.3 µM (inactive) | 43.7 µM (inactive) |
| N#CC(/N=N/c1ccc(Cl)cc1)c1nc2ccccc2o1 (stereo not given) | > 100 µM (inactive) | – | 34.6 µM (inactive) | > 100 µM (inactive) | 37 µM (inactive) | > 100 µM (inactive) | 43.7 µM (inactive) | > 100 | 37.6 µM (inactive) | 15.7 µM (inactive) | > 100 µM (inactive) | > 100 µM (inactive) | 29.6 µM (inactive) | > 100 µM (inactive) | 33.3 µM (inactive) | > 100 µM (inactive) | > 100 µM (inactive) | 15.5 µM (inactive) | 42.7 µM (inactive) | > 100 µM (inactive) |
| Cc1cc(C)c(S(=O)(=O)N(CCCN)OCCCN)c(C)c1 | 0.881 µM (active) | > 100 µM (inactive) | > 100 µM (inactive) | > 100 µM (inactive) | > 100 µM (inactive) | > 100 µM (inactive) | > 100 µM (inactive) | – | > 100 µM (inactive) | > 100 µM (inactive) | > 100 µM (inactive) | > 100 µM (inactive) | > 100 µM (inactive) | 31.4 µM (inactive) | > 100 µM (inactive) | > 100 µM (inactive) | > 100 µM (inactive) | > 100 µM (inactive) | > 100 µM (inactive) | > 100 µM (inactive) |
| Nc1nc(Cl)c(/C=N\O)c(NCC2(CO)CCC2)n1 | 70.8 µM (inactive) | > 100 µM (inactive) | 30.6 µM (inactive) | 44.4 µM (inactive) | 51.2 µM (inactive) | 40.4 µM (inactive) | 11.6 µM (inactive) | 60.8 | 22.4 µM (inactive) | 8.11 µM (inactive) | 68.4 µM (inactive) | 25.6 µM (inactive) | > 100 µM (inactive) | – | > 100 µM (inactive) | 32.1 µM (inactive) | 40.2 µM (inactive) | 14 µM (inactive) | 28.2 µM (inactive) | 54.6 µM (inactive) |
